Assay results published in paper PMC9781803, “Phenotypic and Target-Directed Screening Yields New Acaricidal Alternatives for the Control of Ticks” (Molecules, 2022).
Where two headings read alike, the source gives them in different places.

Legend:
[1] = molecular target: R. microplus triosephosphate isomerase (RmTIM) (Rhipicephalus microplus, UniProt A8B3A8); assay: biochemical; details: for inhibition at 100 µM / inhibition at 10 µM: 1 h incubation, read-out: % Inhibition of Enzymatic Activity of RmTIM; for IC50: RmTIM
Protocol: (§1) R. microplus triosephosphate isomerase (RmTIM) and Homo sapiens triosephosphate isomerase (HsTIM) were expressed in Escherichia coli, and purified as previously described in the literature. Protein concentration was determined by absorbance measurements at 280 nm for RmTIM (ε = 33440 M^−1cm^−1) and HsTIM (ε = 33460 M^−1cm^−1). Enzymatic activity was determined following the reaction of the conversion of glyceraldehyde-3-phosphate to dihydroxyacetone phosphate in a coupled enzyme assay using α-glycerol-phosphate dehydrogenase. The decrease in absorbance at 340 nm was recorded in a multiplate reader Varioskan™ Flash Multimode Reader (Thermo Scientific^TM, Waltham, MA, USA) at 25 °C. The reaction mixture ([…], pH 7.4) contained 100 mM triethanolamine, 10 mM EDTA, 0.2 mM NADH, 1 mM glyceraldehyde-3-phosphate, and 0.9 units of α-glycerol-phosphate dehydrogenase. The reaction was initiated by the addition of 5 ng/mL of the TIM of interest. For the inhibition studies (incubation mixture), TIM was incubated at a concentration of 5 mg/mL in a buffer of pH 7.4 containing 100 mM triethanolamine, 10 mM EDTA, and 10% DMSO at 25 °C for 1 h. The mixture also contained the compounds, dissolved in DMSO, at final concentrations of 10 and 100 μM. After 1 h, 10 μL of the incubation mixture was added to the reaction mixture, to a final volume of 100 μL in a 96-well plate. None of the molecules tested here affected the activity of α-glycerol-phosphate dehydrogenase (checked in situ on the reaction mixture inhibited, with the addition of fresh α-glycerol-phosphate dehydrogenase and running the measurement again). The IC50 value was taken as the concentration of drug needed to reduce the enzymatic activity by 50%, and was analyzed using OriginLab 8.5 Corporation, Northampton, MA, USA, sigmoidal regression (% of enzymatic activity vs. the logarithm of the compound concentration). The tests were performed in triplicate in two independent experiments.

[2] = molecular target: T1, Homo sapiens triosephosphate isomerase (HsTIM) (Homo sapiens, UniProt P60174); assay: Enzymatic activity of TIM, coupled enzyme assay; format: biochemical
T1 construct: made in house; host or cells: Escherichia coli
Protocol: as §1

[3] = system: J774.1 murine macrophages; assay: Cytotoxicity assay on murine macrophages (MTT); format: cell-based; details: for EC50: read-out: EC50 (µM) for Mammalian Cells; for IC50: J774.1, 48 h, read-out: IC50 (µM) Mammalian Cells
Protocol: J774.1 murine macrophages (ATCC, Rockville, MD, USA) were grown in a DMEM culture medium containing 4 mM L-glutamine, and supplemented with 10% FCS. The cells were seeded into a 96-well plate (5 × 10^4 cells in 200 µL culture medium) and incubated at 37 °C in a 5% CO2 atmosphere for 48 h, to allow cell adhesion before drug testing. Afterward, the cells were exposed for 48 h to the compounds (25–400 μM) or the vehicle (0.4% DMSO), and additional controls (cells in medium) were used in each test. Cell viability was then assessed by measuring the mitochondria-dependent reduction of MTT to formazan: for this, MTT in sterile PBS (0.2% glucose), pH 7.4, was added to the macrophages, to a final concentration of 0.1 mg/mL, and the cells were then incubated at 37 °C for 3 h. After removing the medium, the formazan crystals were dissolved in 180 μL of DMSO and 20 μL of MTT buffer (0.1 M glycine, 0.1 M NaCl, 0.5 mM EDTA, pH 10.5), and the absorbance was measured at 560 nm. The IC50 was defined as the drug concentration at which 50% of the cells were viable, relative to the control (no drug added), and was determined by analysis using OriginLab 8.5 Corporation, Northampton, MA, USA, sigmoidal regression (% of viable cells compared to the logarithm of the compound concentration). The tests were performed in triplicate in two independent experiments.

R. microplus = assay: Acaricidal activity on R. microplus (LIT and AIT, overall statement); format: in vivo; details: LIT 1 mM and AIT 1.5 mM
Protocol: After immersion, the fully engorged females were lightly dried with absorbent paper. […] The tubes carrying the eggs were closed with hydrophilic cotton, and were returned to the incubator chamber under the same conditions until the eggs hatched. The reproductive efficacy, as well as % control of each compound on R. microplus, was calculated according to published reports. The results were verified in two independent experiments. This assay was performed based on the method of Castro-Janer et al., 2011. […] The tubes were incubated in the same conditions as described above. The larvae were ready for testing after 14 to 21 days from egg-hatching. For the test, the compounds were diluted in DMSO, and were later resuspended in distilled water, always using 15% DMSO of the final solution volume. […] For the immersion procedure, tubes containing the larvae were placed vertically, without the cotton plug, and the larvae were taken with a brush from the top of the tube, ensuring they were viable. A cluster with a diameter of 2 mm of larvae was collected with a brush, and was later immersed in each solution, as well as in both control solutions, for 10 min. After this time, the solutions were drained, and the larvae were placed in 8.5 cm × 7.5 cm Whatman No. 1 filter papers. The filters were folded in the middle of the 8.5 cm side, and closed with 3 bulldog clips, forming packets. These packets were incubated for 24 h, under the same conditions as described previously, and then the percent of mortality was determined, considering it as the % of the control.

[4] = system: embryonic cell line BME26; assay: Phenotypic screening on BME26 cell cultures (MTT viability); format: cell-based, R. microplus; details: for inhibition at 100 µM: read-out: % of Growth Inhibition
Protocol: The embryonic cell line BME26 from R. microplus (Centro de Biotecnologia, Universidade Federal do Rio Grande do Sul, Porto Alegre, RS, Brazil) was grown as adherent monolayers in a complete medium, as described previously, which consisted of L-15B300 medium supplemented with 5% heat-inactivated Fetal Bovine Serum (FBS) (Gibco Co., Grand Island, NY), 10% Tryptose Phosphate Broth (TPB) (BD), penicillin (100 U/mL), streptomycin ([…], Gibco Co., Grand Island, NY, USA), and 0.1% bovine lipoprotein concentrate (ICN), (pH 7.2). The suspension of embryonic BME26 cells from R. microplus was seeded into 24-well plates (5 × 10^5 cells/well) to a final volume of 500 μL in a complete medium, and allowed to attach. After 24 h incubation at 34 °C, the extracts (100 µg/mL final concentration) and the compounds were added to the final concentrations indicated (1–100 µM), and 0.05% dimethylsulfoxide (DMSO) was used in the negative control wells. After 24 h of treatment, 50 μL of 3-(4,5-dimethylthiazol-2-yl)-2,5-diphenyltetrazolium bromide (MTT) prepared in serum-free medium (5 mg/mL) was added to each well. The media were discarded after 2 additional hours of incubation, and 1 mL of acid-isopropyl alcohol (0.15% HCl in isopropyl alcohol) was added to dissolve the formazan crystals. The mixture was transferred to 1.5 mL tubes, centrifuged at 6000× g for 15 min, and the clear supernatant was collected in new tubes for absorbance measurement at 570 nm using quartz cuvettes in a UVmini-1240 UV–vis spectrophotometer (Shimadzu, Japan). Absorbance values of the control treatment were used for normalization (100% viability). The activity was determined by analysis using OriginLab8.5® sigmoidal regression (% of viable cells compared to the logarithm of the compound concentration). The half-maximal inhibitory concentration (IC50), defined as the drug concentration at which 50% of the cells were viable relative to the control (no drug added), was used as a measurement of activity. These experiments were performed in triplicate for each compound.

[5] = system: fully engorged females of the Mozo susceptible strain of R. microplus; assay: Adult Immersion Test (AIT); format: in vivo; details: compounds 1.5 mM, 15 min immersion, 14 days
Protocol: This essay was performed based on Drummond et al., 1973, as each group of 5 fully engorged females of the Mozo susceptible strain of R. microplus was immersed in 50 mL tubes containing 10 mL of compounds at different concentrations (0.5, 1, 1.5, 2, 3.5 mM) for 15 min in four replicates. Four negative control groups were used (DMSO 10%). After immersion, the fully engorged females were lightly dried with absorbent paper. They were then placed in 100 mm disposable Petri dishes with their respective identification, and immediately incubated at 27 °C in an atmosphere with relative humidity (RH) of 85-90% for 14 days. […] The tubes carrying the eggs were closed with hydrophilic cotton, and were returned to the incubator chamber under the same conditions until the eggs hatched. The reproductive efficacy, as well as % control of each compound on R. microplus, was calculated according to published reports. The results were verified in two independent experiments.

[6] = BME26 cells, 24 h, MTT, read-out: IC50
[7] = synthetic compounds at 100 μM, BME26, 24 h
[8] = Mus musculus, J774.1, cytotoxicity

R. microplus triosephosphate isomerase (RmTIM), sequence (A8B3A8 entry or part of it): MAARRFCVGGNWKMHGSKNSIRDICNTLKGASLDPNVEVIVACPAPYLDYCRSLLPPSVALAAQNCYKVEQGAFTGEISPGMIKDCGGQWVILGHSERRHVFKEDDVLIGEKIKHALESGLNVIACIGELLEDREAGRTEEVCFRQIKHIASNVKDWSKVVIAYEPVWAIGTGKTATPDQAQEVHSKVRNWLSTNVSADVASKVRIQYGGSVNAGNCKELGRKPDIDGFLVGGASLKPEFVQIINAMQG
T1 sequence (P60174 whole entry): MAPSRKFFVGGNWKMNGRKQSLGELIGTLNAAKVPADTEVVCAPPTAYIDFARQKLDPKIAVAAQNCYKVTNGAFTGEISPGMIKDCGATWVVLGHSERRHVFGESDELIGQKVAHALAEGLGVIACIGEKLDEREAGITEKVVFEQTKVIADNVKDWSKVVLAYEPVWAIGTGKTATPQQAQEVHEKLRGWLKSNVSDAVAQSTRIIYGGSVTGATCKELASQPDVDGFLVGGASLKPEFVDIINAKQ

Compound	acaricidal activity (in words) (R. microplus)	IC50 ([1]; read-out: IC50)	IC50 ([3]; Mus musculus)	IC50 [4, 6]	inhibition at 100 µM [4, 7]	also measured
COc1ccc(/C=C2\CCCC3C2=NN(c2ccccn2)C3c2ccc(OC)cc2)cc1 (stereo not drawn) [Dm97]						inhibition at 100 µM [1]: 0%
COc1cc(/C=C/C(=O)CC(=O)/C=C/[c-]2cccc2)ccc1O.[Fe+2].c1cc[cH-]c1 [Mar105, [(1E,6E)-7-(4-hydroxy-3-methoxyphenyl)-3,5-dioxo-1,6-heptadien-1-yl]ferrocene]	did not show reproducible acaricidal activity	10 ± 1 µM				% Inhibition of Enzymatic Activity of HsTIM at 10 µM ([2]; at 10 µM): 0%; EC50 ([3]; cytotoxicity): > 25 µM
C=CCn1c(-c2ccc(Cl)cc2)cs/c1=N/N=C/c1cccs1 [compound 133]			> 50 µM	> 50 µM	71%	
Nc1ccc2c(c1)[n+]([O-])c1cc(Br)ccc1[n+]2[O-] [compound 181]			< 25 µM		90%	
[O-][n+]1c2ccc(O)cc2[n+]([O-])c2cc(Cl)c(Cl)cc21 [compound 183]			< 25 µM		62%	
C=CCn1c(-c2ccc(Cl)cc2)cs\c1=N/N=C/C=C/c1ccco1 [compound 266]	acaricidal potential against R. microplus similar to Amitraz		> 50 µM	> 100 µM	77%	
O=C(Oc1ccccc1)N1CCN(C(=O)Oc2ccccc2)CC1 [compound 715]						IC50 ([4]; 24 h): > 50 µM; inhibition at 100 µM ([4]; 24 h): 64%
O=C(/C=C/c1ccco1)/C=C/c1ccco1 [compound 795]	acaricidal potential		> 50 µM	20 ± 3 µM	80%	% of Mortality AIT [5]: 70 ± 7%
CC(/C=C/C(=O)/C=C/C(C)=C/c1ccco1)=C\c1ccco1 [compound 809]			> 50 µM	> 100 µM	50%	
Cc1ccc(/C=C/C=N/N2CCN(C/C=C/c3ccccc3)CC2)o1 [compound 903]			> 50 µM	> 50 µM	75%	% of Mortality AIT [5]: 10 ± 1%
COc1cc(/C=C/C(=O)CC(=O)/C=C/c2ccc(O)c(OC)c2)ccc1O [compound 906, curcumin]	acaricidal potential against R. microplus similar to Amitraz		< 25 µM	24 ± 3 µM	95%	% of Mortality AIT [5]: 60 ± 8%
C(=C\c1ccco1)/C=N/N1CCN(C/C=C/c2ccccc2)CC1 [compound 912]			> 50 µM	> 50 µM	52%	% of Mortality AIT [5]: 30 ± 8%
O=c1cc(O)n(Cc2ccccc2)c(=S)n1Cc1ccccc1 [compound 1088]		> 50 µM				
O=C(N/N=C/C=C/c1ccco1)c1cnn(-c2ccccc2)c1 [compound 1366]						inhibition at 100 µM [1]: 38%
CC(/C=N/NC(=[Se])NCCN1CCOCC1)=C\c1ccco1 [compound 1378]						inhibition at 10 µM [2]: 0%; IC50 ([1]; IC50 (µM)): 30 µM; inhibition at 100 µM [1]: 77%
FC(F)(F)C1=CSC(Nc2ccccc2)N1Cc1ccco1 (stereo not drawn) [compound 1385]	did not show reproducible acaricidal activity	< 10 µM				EC50 [3, 8]: > 50 µM; inhibition at 10 µM [1]: 89%
CN=C1C=CC(=C(c2ccc(N(C)C)cc2)c2ccc(N(C)C)cc2)C=C1 [compound 1386]	did not show reproducible acaricidal activity	< 10 µM				inhibition at 10 µM [1]: 100%
COc1ccc(/C=C/c2ccc3no[n+]([O-])c3c2)cc1 [compound 1404]	did not show reproducible acaricidal activity	< 10 µM				EC50 [3, 8]: > 50 µM; inhibition at 10 µM [1]: 100%
O=C1C(Cl)=C(Oc2cccc3ccccc23)C(=O)c2ccccc21 [compound 1408]		> 50 µM				inhibition at 100 µM [1]: 72%
